Results: patent US20230364061A1, “THIAZOLIDINE DERIVATIVES FOR INHIBITING CAV3.2-USP5 INTERACTIONS” (Zymedyne Therapeutics Inc., priority 2020, published 2023)

Legend:
[1] = test system: recombinant USP5 (long or short splice variant); experiment: USP5 deubiquitinase (DUB) activity assay; format: biochemical; settings: recombinant long or short form of USP5, fluorescence over time (FIG. 8)
Procedure: FIG. 8 examines the effect of exemplary compound II-1 on in vitro deubiqutinase activity of USP5. Here recombinant USP5 (either the long or the short splice variant) is incubated with a ubiquitinated substrate, and deubiquitination is measured via a fluorescence readout as a function of time.
To rule out the possibility that exemplary compound II-1 might mediate its analgesic effects by altering the deubiquitinase (DUB) activity of USPS rather than by disrupting the interactions with the channel, a DUB assays was conducted (FIG. 8). Here, a ubiquitinated substrate (ubiquitin-rhodamine110-glycine) is incubated with recombinant long or short forms of USP5, and deubiquitination of the substrate as a function of time is measured via a fluorescence readout. Both the long form and the short form of USP5 lead to deubiquitination of the substrate, as evident from an increasing and plateauing fluorescence signal (528 nm emission in response to 485 nm excitation). The commercially available DUB inhibitor Degrasyn which is used as a positive control prevents this.

[2] = target: T1, USP5-Cav3.2 interaction (recombinant USP5 binding to immobilized Cav3.2 domain III-IV linker peptides) (Homo sapiens, UniProt P45974); experiment: Cav3.2-USP5 ELISA assay; settings: for Percent Inhibition: Cav3.2-USP5 ELISA of Example 1, concentration not given
T1 sequence (P45974 1-858): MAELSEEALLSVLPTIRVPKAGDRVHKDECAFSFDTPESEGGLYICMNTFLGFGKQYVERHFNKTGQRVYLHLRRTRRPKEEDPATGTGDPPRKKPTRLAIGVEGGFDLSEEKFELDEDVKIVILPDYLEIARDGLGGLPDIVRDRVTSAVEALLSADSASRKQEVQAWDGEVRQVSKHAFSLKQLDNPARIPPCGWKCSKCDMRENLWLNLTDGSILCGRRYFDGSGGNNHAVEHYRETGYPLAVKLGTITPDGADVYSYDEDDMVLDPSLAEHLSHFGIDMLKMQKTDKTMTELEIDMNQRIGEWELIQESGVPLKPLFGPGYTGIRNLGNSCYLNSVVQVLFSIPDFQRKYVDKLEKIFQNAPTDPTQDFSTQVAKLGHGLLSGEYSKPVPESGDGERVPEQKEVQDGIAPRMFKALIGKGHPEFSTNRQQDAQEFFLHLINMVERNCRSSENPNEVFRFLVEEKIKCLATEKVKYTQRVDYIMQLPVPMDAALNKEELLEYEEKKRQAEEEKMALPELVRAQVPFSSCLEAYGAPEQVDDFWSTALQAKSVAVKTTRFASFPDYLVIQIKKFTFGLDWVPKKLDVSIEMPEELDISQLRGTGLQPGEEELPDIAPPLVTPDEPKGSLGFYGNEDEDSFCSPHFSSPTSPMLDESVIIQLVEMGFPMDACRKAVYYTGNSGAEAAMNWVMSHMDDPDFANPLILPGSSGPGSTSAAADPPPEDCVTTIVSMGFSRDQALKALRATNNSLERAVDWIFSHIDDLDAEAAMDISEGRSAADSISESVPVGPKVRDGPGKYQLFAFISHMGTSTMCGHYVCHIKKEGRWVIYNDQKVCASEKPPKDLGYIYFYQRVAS
Description: FIG. 3 is a schematic of the high throughput ELISA assay used to screen the exemplary compound of the applications. Here the Cav3.2 III-1V linker is immobilized and then recombinant USP5 is allowed to bind. Binding is detected via antibodies conjugated to horseradish peroxidase for a fluorescent readout. Compounds are applied and a reduction in fluorescence is indicative of a disruption of USP5-Cav3.2 interactions.
A high throughput ELISA assay was used to screen the exemplary compounds of the applications (FIG. 3). The ELISA is based on the binding of recombinant USP5 to immobilized Cav3.2 domain […] linker peptides. Binding interactions were detected using USP5 antibodies, and a secondary antibody conjugated to horseradish peroxidase, leading to a fluorescence readout. The ELISA was converted into a high through-put format 384 well plate. Multiple compound libraries were screened for small organic molecules that disrupt the USP5—Cav3.2 interaction. A number of hits were identified at the standard screening concentration, and the dose dependence of hits was investigated. Select actives were subjected to a secondary biochemical assays based on co-immunoprecipitations of USP5 and Cav3.2 from mouse neuronal tissue.
In the ELISA assay from Example 1, compound II-1 was added at varying concentrations, and the ability of II-1 to inhibit the USP5-Cav3.2 interaction examined. The percentage of inhibition as a function of drug concentration could be fitted using the Hill equation.

[3] = target: T2, association of USP5 and Cav3.2 channels (Mus musculus, UniProt P56399); experiment: Co-immunoprecipitation of USP5 with Cav3.2 from brain lysate; format: binding; settings: 1 uM compound, whole brain lysates, n=5 (FIG. 4)
T2 construct: using whole brain lysates and probed for USP5; from tissue; host or cells: mouse whole brain homogenate/lysate
T2 sequence (P56399 1-858): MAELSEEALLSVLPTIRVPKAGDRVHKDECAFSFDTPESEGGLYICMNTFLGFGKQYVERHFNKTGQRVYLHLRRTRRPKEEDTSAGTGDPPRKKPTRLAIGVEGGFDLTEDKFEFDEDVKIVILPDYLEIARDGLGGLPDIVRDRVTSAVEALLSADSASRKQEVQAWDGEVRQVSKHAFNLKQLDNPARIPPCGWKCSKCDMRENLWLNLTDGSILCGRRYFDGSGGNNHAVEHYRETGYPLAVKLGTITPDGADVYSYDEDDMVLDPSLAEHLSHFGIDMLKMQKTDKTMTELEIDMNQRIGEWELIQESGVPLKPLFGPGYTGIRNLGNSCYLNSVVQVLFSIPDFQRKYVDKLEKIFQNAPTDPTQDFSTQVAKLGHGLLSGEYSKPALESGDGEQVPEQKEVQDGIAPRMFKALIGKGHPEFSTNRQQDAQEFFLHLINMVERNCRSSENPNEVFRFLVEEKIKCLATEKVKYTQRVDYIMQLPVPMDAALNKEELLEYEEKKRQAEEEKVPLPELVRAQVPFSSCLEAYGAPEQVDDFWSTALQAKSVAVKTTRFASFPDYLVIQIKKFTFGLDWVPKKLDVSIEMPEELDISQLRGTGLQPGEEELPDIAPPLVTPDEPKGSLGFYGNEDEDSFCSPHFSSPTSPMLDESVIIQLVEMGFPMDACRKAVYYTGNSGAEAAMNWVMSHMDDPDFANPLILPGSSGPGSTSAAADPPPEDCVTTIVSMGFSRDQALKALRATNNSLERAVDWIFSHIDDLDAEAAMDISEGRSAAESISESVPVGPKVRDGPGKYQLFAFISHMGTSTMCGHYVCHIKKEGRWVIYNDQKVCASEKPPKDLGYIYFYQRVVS
Procedure: FIG. 4 is a graph showing the results of the of immunoprecipitation assay with Cav3.2 channels and a rabbit 3.2 polyclonal antibody using whole brain lysates and probed for USP5 (n=5). Quantifications were normalized to bound USP5 to Cav3.2 IP/alpha-tubulin. 1 uM of exemplary compounds II-1 and II-2 were used in the incubation. 5 uM of a positive control compound was used in the incubation.
A co-immunoprecipitation assay was implemented as a secondary screen for actives derived from the compound library screen. Moause brain homogenate was prepared, and the tissue containing was incubated with a rabbit Cav3.2 polyclonal antibody to immunoprecipitate Cav3.2 channel complexes. The precipitates were run on a Western blot and probed with an antibody against USP5 (n=5). Band intensities for bound USP5 were quantified and normalized to alpha-tubulin (FIG. 4). 1 μM of exemplary compounds II-1 and II-2 were used in the incubation. 5 μM of a control compound identified in a previous library screen was used as a positive control.

[4] = test system: formalin induced nocifensive responses; experiment: Formalin-induced pain assay; format: in vivo; settings: mice, intrathecal delivery, both phases (FIG. 5)
Procedure: Formalin was injected into the hindpaw of a mouse, and the time that the mouse spent licking and biting its paw was determined. There are two phases of these nocifensive behavioral responses—phase I occurs immediately after formalin injection and reflects an acute response, phase II occurs approximately thirty minutes after formalin injection and reflects inflammatory pain. II-1 inhibited the duration of both phases in a dose dependent manner. […] Formalin injection into the hindpaw mediates nocifensive responses (paw licking, biting). There is an initial phase that reflects an acute responses to formalin injection, followed by a quiescent period and a second phase of nocifensive behaviors that reflects inflammatory pain. The duration of the responses is reflective of the amount of pain. […] The same doses were then used in a chronic inflammatory pain assay (i.e. CFA).

[5] = test system: CFA induced thermal hypersensitivity; experiment: Complete Freund's Adjuvant (CFA) model of chronic inflammatory pain, thermal hypersensitivity; format: in vivo, mice
Procedure: The latency to paw withdrawal in response to radiate heat to the paw decreases after CFA, and II-1 reverses this hypersensitivity in a dose dependent manner, indicating a strong analgesic effect of II-1. […] CFA injection into the hind paw leads to long lasting (weeks) mechanical and thermal hypersensitivity of the hind paw that is reflective of chronic inflammatory pain states. Thermal hypersensitivity is assessed by applying a radiant heat source to the hind paw of the animal and measuring the time between application of the heat source and the withdrawal of the paw. In CFA treated animals, the withdrawal latencies are dramatically shortened, and reflective of thermal hypersensitivity (i.e. thermal pain responses). […] Two asterisks indicate statistical significance at the 0.01 level, three asterisks indicate statistical significance at the 0.001 level relative to CFA+vehicle. FIG. 7 compares the effects of exemplary compound II-1 on CFA mediated thermal hypersensitivity in wild type mice and in mice lacking Cav3.2 channels (45 minutes after administration of the compound). […] Cav3.2^-/- mice have compensatory mechanisms that lead to increased thermal hypersensitivity in response to CFA even though Cav3.2 channels are absent.

[6] = test system: CFA induced thermal hypersensitivity in Cav3.2-/- mice; experiment: CFA thermal hypersensitivity in Cav3.2 null mice; format: in vivo; settings: 45 minutes after administration (FIG. 7)
Procedure: FIG. 7 compares the effects of exemplary compound II-1 on CFA mediated thermal hypersensitivity in wild type mice and in mice lacking Cav3.2 channels (45 minutes after administration of the compound). […] Cav3.2^−/− mice have compensatory mechanisms that lead to increased thermal hypersensitivity in response to CFA even though Cav3.2 channels are absent.

[7] = test system: diabetic, visceral, inflammatory and neuropathic pain; settings: hits of an initial CDRD active compound library screen; cited from earlier work

Structure (SMILES) | Percent Inhibition [2] | also measured
CCC[C@H](NC(=O)/C(C#N)=C/c1cccc(Br)n1)c1ccccc1 [Degrasyn, reference compound] | – | deubiquitination of ubiquitin-rhodamine110-glycine by USP5 (fluorescence readout) [1]: inhibits this fluorescence signal
CC(O)C(NCC1SC(=S)NC1=O)C(=O)O (stereo not drawn) [II-1] | 100% | dose-response of percent inhibition in the Cav3.2-USP5 ELISA ([2]; varying concentrations, fitted with the Hill equation (FIG. 9)): dose dependence of the effect; USP5 bound to Cav3.2 IP, normalized to alpha-tubulin [3]: disrupt the association of USP5 and Cav3.2 channels in neuronal tissue; duration of nocifensive responses (paw licking, biting), phase I and phase II [4]: response time is shortened in a dose dependent manner; thermal paw withdrawal latency after CFA ([5]; mice, intrathecal delivery, dose response (FIG. 6)): shortened latencies are reversed in a dose dependent manner; thermal paw withdrawal latency after CFA, wild type mice ([5]; wild type Cav3.2+/+ mice, 45 minutes after administration (FIG. 7)): reversed the CFA-induced reduction in thermal paw withdrawal latencies; thermal paw withdrawal latency after CFA, Cav3.2 knockout mice [6]: no longer able to reverse CFA induced thermal hypersensitivity; deubiquitination of ubiquitin-rhodamine110-glycine by USP5 (fluorescence readout) [1]: does not mediate DUB inhibition
CC(CO)(CO)NCC1SC(=S)NC1=O (stereo not drawn) [II-2] | 100% | USP5 bound to Cav3.2 IP, normalized to alpha-tubulin [3]: disrupt the association of USP5 and Cav3.2 channels in neuronal tissue; deubiquitination of ubiquitin-rhodamine110-glycine by USP5 (fluorescence readout) [1]: fail to inhibit deubiquitination
CC(C)C(NCC1SC(=S)NC1=O)C(=O)O (stereo not drawn) [II-3] | 100% | –
CC(C)CC(NCC1SC(=S)NC1=O)C(=O)O (stereo not drawn) [II-4] | 100% | –
CCC(C)C(NCC1SC(=S)NC1=O)C(=O)O (stereo not drawn) [II-5] | 86% | –
NCCCCC(NCC1SC(=S)NC1=O)C(=O)O (stereo not drawn) [II-6] | 87% | –
O=C(O)CN(CC(=O)O)CC1SC(=S)NC1=O (stereo not drawn) [II-7] | 85% | –
O=C(O)CCNCC1SC(=S)NC1=O (stereo not drawn) [II-8] | 82% | –
O=C1NC(=S)SC1CNCCCO (stereo not drawn) [II-9] | 6% | –
CC(C)CCC(CCC(C)C)NCC1SC(=S)NC1=O (stereo not drawn) [II-10] | 28% | –
O=C1NC(=S)SC1CNC1(CCO)CCCCC1 (stereo not drawn) [II-11] | 75% | –
O=C1NC(=S)SC1CNC1CCCCC1 (stereo not drawn) [II-12] | 82% | –
O=c1c(O)c(-c2ccc(O)c(O)c2)oc2c(O)c(O)cc(O)c12 [gossypetin] | – | protection from pain in mice [7]: protect from diabetic, visceral, inflammatory and neuropathic pain in mice
Cc1ccc(C(=O)Nc2ccc(S(=O)(=O)O)c3cc(S(=O)(=O)O)cc(S(=O)(=O)O)c23)cc1NC(=O)c1cccc(NC(=O)Nc2cccc(C(=O)Nc3cc(C(=O)Nc4ccc(S(=O)(=O)O)c5cc(S(=O)(=O)O)cc(S(=O)(=O)O)c45)ccc3C)c2)c1 [suramin] | – | protection from pain in mice [7]: protect from diabetic, visceral, inflammatory and neuropathic pain in mice
